Reference: patent publication US8518913B2, “Phosphorous derivatives as chemokine receptor modulators” (Allergan, Inc., priority 2010, dated 2013)
Where two headings read alike, the source gives them in different places.

Target: T1, CCR2 receptor (Homo sapiens, UniProt P41597)
T1 construct: expressed in transfected cells
Assay: CCR2 calcium activity assay on FLIPR Tetra in HEK-Gqi5 cells stably expressing CCR2
Format: cell-based
Description: HEK-Gqi5 cells stably expressing CCR2 were cultured in (DMEM high glucose, 10% FBS, 1% PSA, 400 μg/ml geneticin and 50 μg/ml hygromycin. Appropriate positive control chemokines (MCP-1, MIP1A or RANTES) was used as the positive control agonist for screening compound-induced calcium activity assayed on the FLIPR^Tetra. The drug plates were prepared in 384-well microplates using the EP3 and the MultiPROBE robotic liquid handling systems. Compounds were synthesized and tested for CCR2 activity.

[1] = HEK-Gqi5 cells stably expressing CCR2, calcium activity, FLIPR Tetra
[2] = HEK-Gqi5 cells stably expressing CCR2, calcium activity, FLIPR Tetra, read-out: CCR2 IC50

T1 sequence (P41597 whole entry): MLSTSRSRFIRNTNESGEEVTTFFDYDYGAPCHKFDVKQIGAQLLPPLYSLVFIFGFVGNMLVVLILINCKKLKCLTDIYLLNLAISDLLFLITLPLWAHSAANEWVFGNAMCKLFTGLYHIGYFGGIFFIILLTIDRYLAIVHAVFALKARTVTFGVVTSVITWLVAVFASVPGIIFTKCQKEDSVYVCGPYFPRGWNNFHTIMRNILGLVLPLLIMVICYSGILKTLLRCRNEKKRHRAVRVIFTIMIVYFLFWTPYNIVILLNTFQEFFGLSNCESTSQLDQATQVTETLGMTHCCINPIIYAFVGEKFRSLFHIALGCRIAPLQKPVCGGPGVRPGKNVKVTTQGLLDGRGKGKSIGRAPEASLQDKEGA

CCR2 % ANTAGONISM [1] [%]	IC50 [2] [µM]	Compound	IC50 [µM]
93	0.015	CP(=O)(c1ccc(Cl)cc1NS(=O)(=O)c1ccc(Cl)c(C(F)(F)F)c1)N1CCOCC1 (centres unmarked) [Compound 6, 4-Chloro-N-{5-chloro-2-[methyl(morpholin-4-yl)phosphoryl]phenyl}-3-(trifluoromethyl)benzenesulfonamide]	–
87	0.025	CP(=O)(c1ccc(Cl)cc1NS(=O)(=O)c1ccc(Cl)c(C(F)(F)F)c1)N1CCC(=O)CC1 (centres unmarked) [Compound 7, 4-Chloro-N-{5-chloro-2-[methyl(4-oxopiperidin-1-yl)phosphoryl]phenyl}-3-(trifluoromethyl)benzenesulfonamide]	–
92	0.125	CP(C)(=O)c1ccc(Cl)cc1NS(=O)(=O)c1ccc(Cl)c(C(F)(F)F)c1 [Compound 15, 4-Chloro-N-[5-chloro-2-(dimethylphosphoryl)phenyl]-3-(trifluoromethyl)benzenesulfonamide]	–
84	0.537	CCCCOP(=O)(c1ccc(Cl)cc1NS(=O)(=O)c1ccc(Cl)c(C(F)(F)F)c1)N1CCC(=O)CC1 (centres unmarked) [Compound 10, Butyl [4-chloro-2-({[4-chloro-3-(trifluoromethyl)phenyl]sulfonyl}amino)phenyl](4-oxopiperidin-1-yl)phosphinate]	–

The remaining lines, values behind:

Compound	CCR2 % ANTAGONISM [1] [%]	IC50 [2] [µM]	IC50 [µM]
COP(=O)(c1ccc(Cl)cc1NS(=O)(=O)c1ccc(Cl)c(C(F)(F)F)c1)N1CCC(=O)CC1 (centres unmarked) [Compound 12, Methyl [4-chloro-2-({[4-chloro-3-(trifluoromethyl)phenyl]sulfonyl}amino)phenyl](4-oxopiperidin-1-yl)phosphinate]	95	0.124	–
CCOP(=O)(c1ccc(Cl)cc1NS(=O)(=O)c1ccc(Cl)c(C(F)(F)F)c1)N1CCOCC1 (centres unmarked) [Compound 11, Ethyl [4-chloro-2-({[4-chloro-3-(trifluoromethyl)phenyl]sulfonyl}amino)phenyl]morpholin-4-ylphosphinate]	65	0.15	–
CCOP(C)(=O)c1ccc(Cl)cc1NS(=O)(=O)c1ccc(Cl)c(C(F)(F)F)c1 (centres unmarked) [Compound 1, Ethyl [4-chloro-2-({[4-chloro-3-(trifluoromethyl)phenyl]sulfonyl}amino)phenyl]methylphosphinate]	80	–	0.159
